The text below walks through data of patent US20110257220A1, “3,11 b-cis-Dihydrotetrabenazine for the Treatment of Schizophrenia and Other Psychoses” (CAMBRIDGE LABORATORIES (IRELAND) LIMITED, priority 2005, published 2011).

One test has as its target T1, Adrenergic α2B Receptor (Homo sapiens, UniProt P18089).
T1 construct: expressed in transfected cells; host or cells: CHO-K1 cells
T1 sequence (P18089 1-450): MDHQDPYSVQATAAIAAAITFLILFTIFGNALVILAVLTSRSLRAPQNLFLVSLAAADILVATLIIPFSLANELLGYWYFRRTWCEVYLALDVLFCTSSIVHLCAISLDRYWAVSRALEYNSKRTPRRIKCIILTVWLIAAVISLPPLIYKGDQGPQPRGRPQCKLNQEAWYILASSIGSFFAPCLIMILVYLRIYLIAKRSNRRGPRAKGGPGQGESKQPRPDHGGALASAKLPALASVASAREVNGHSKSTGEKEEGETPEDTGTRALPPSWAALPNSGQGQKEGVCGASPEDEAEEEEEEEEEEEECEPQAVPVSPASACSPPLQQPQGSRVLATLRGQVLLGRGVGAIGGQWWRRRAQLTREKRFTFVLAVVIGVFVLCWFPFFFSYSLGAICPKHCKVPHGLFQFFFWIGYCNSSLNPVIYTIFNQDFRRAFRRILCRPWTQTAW
As to the kind of experiment: Adrenergic α2B receptor radioligand binding ([3H] Rauwolscine). Conditions: 10 μM solution; for inhibition at 10 µM: read-out: Percentage Inhibition of Specific Binding, α2B Receptor. As to the method:
(§1) The four dihydrotetrabenazine isomers A, B, C and D were subjected to specific binding assays to test their ability to bind to the receptors and transporter proteins described below. The results are set out in Table 5
(b) Adrenergic α2B Receptor:
• Reference: S. Uhlen et al., Eur. I Pharmacol., 33 (1): 93-1-1 (1998) • Source: Human recombinant CHO-K1 cells • Ligand: 2.5 nM [3H]

Test [1] has as its target T2, Serotonin (5-hydroxytryptamine) 5-HT6 Receptor (Homo sapiens, UniProt P50406).
T2 construct: expressed in transfected cells; host or cells: HeLa cells
The test can be described thus: 5-HT6 receptor radioligand binding ([3H] LSD). To be noted: 10 μM solution; for inhibition at 10 µM: read-out: Percentage Inhibition of Specific Binding, 5-HT6 receptor.
From the text: as §1

The target in another test is T3, Dopamine D1 Receptor (Homo sapiens, UniProt P21728).
T3 construct: expressed in transfected cells; host or cells: CHO cells
The test can be described thus: Dopamine D1 receptor radioligand binding ([3H] SCH-23390). Conditions: 10 μM solution; for inhibition at 10 µM: read-out: Percentage Inhibition of Specific Binding, D1 Receptor. As to the method: as §1
(c) Dopamine D1 Receptor:
• Reference: Dearry et al., Nature, 347:72-76, (1990) • Source: Human recombinant CHO cells • Ligand: 1.4 nM [3H]

In another test the target is T4, Sigma σ1 Receptor (Homo sapiens, UniProt Q99720).
T4 construct: endogenous in cells; host or cells: Jurkat cells
The test can be described thus: Sigma σ1 receptor radioligand binding ([3H] Haloperidol). Conditions: 10 μM solution; for inhibition at 10 µM: read-out: Percentage Inhibition of Specific Binding, σ1 Receptor. As to the method:
as §1
• Reference: Ganaphthy et al., Pharmacol. Exp. Ther., 289:251-260, (1999) • Source: Human jurkat cells • Ligand: 8 nM [3H]

The next test concerns the target T5, Dopamine D2L Receptor (Homo sapiens, UniProt P14416).
T5 construct: expressed in transfected cells; host or cells: CHO cells
As to the kind of experiment: Dopamine D2L receptor radioligand binding ([3H] Spiperone). To be noted: 10 μM solution; for inhibition at 10 µM: read-out: Percentage Inhibition of Specific Binding, D2L Receptor. As to the method:
as §1
(d) Dopamine D2L, Receptor:
• Reference: Bunzo et al., Nature, 336:783-787 (1988) • Source: Human recombinant CHO cells • Ligand: 0.16 nM [3H]

A further test deals with T6, Adrenergic α2A Receptor (Homo sapiens, UniProt P08913).
T6 construct: expressed in transfected cells; host or cells: insect Sf9 cells
T6 sequence (P08913 1-465): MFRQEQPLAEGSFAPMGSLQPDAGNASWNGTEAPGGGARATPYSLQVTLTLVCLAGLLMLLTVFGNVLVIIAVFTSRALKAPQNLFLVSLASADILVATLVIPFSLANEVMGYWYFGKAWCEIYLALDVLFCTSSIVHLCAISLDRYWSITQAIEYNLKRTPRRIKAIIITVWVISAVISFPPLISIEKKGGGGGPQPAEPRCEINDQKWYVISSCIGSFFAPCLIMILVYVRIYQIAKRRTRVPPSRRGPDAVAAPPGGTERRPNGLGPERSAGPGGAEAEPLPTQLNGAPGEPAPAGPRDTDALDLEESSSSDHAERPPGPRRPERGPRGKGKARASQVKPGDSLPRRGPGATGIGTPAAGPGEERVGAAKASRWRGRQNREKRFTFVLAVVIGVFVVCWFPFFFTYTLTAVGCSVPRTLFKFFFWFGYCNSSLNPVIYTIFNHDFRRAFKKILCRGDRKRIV
The test can be described thus: Adrenergic α2A receptor radioligand binding ([3H] MK-912). To be noted: 10 μM solution; for inhibition at 10 µM: read-out: Percentage Inhibition of Specific Binding, α2A Receptor. As to the method:
as §1
(a) Adrenergic α2A Receptor:
• Reference: S. Uhlen et al. J. Pharmacol. Exp. Ther., 271:1558-1565 (1994) • Source: Human recombinant insect Sf9 cells • Ligand: 1 nM [^3H]

Another test deals with T7, Dopamine D3 Receptor (Homo sapiens, UniProt P35462).
T7 construct: expressed in transfected cells; host or cells: CHO cells
As to the kind of experiment: Dopamine D3 receptor radioligand binding ([3H] Spiperone). To be noted: 10 μM solution; for inhibition at 10 µM: read-out: Percentage Inhibition of Specific Binding, D3 Receptor. As to the method: as §1
(e) Dopamine D3 Receptor:
• Reference: Sokoloff et al., Nature, 347:146-151, (1990) • Source: Human recombinant CHO cells • Ligand: 0.7 nM [3H]

Test [2] concerns the target T8, Serotonin (5-hydroxytryptamine) 5-HT2b Receptor (Homo sapiens, UniProt P41595).
T8 construct: expressed in transfected cells; host or cells: CHO-K1 cells
The test can be described thus: 5-HT2b receptor radioligand binding ([3H] LSD). Conditions: 10 μM solution; for inhibition at 10 µM: read-out: Percentage Inhibition of Specific Binding, 5-HT2b receptor.

Test [3] deals with Imidazoline I2 (Central) Receptor. The test can be described thus: Imidazoline I2 (central) receptor radioligand binding ([3H] Idazoxan). More on the design: species or system Wistar rat. Conditions: 10 μM solution. As to the method: as §1
(f) Imidazoline I2 (Central) Receptor:
• Reference: Brown et al., Brit. I Pharmacol., 99:803-809, (1990) • Source: Wistar rat cerebral cortex • Ligand: 2 nM [3H] Idazoxan • Vehicle: 1% DMSO • Incubation time/Temp: 30 minutes @ 25° C. • Incubation buffer: 50 mM Tris-HCl, 0.5 mM EDTA, pH 7.4 at 25° C. • Non Specific ligand: 1 μM Idazoxan • Kd: 4 nM • Bmax: 0.14 pmole/mg protein • Specific binding: 85% • Quantitation method: Radioligand binding • Significance criteria: ≧50% of maximum stimulation or inhibition

For test [4], the target named is T9, Dopamine Transporter (DAT) (Homo sapiens, UniProt Q01959).
T9 construct: expressed in transfected cells; host or cells: CHO cells
The test can be described thus: Dopamine transporter radioligand binding ([125I] RTI-55). To be noted: 10 μM solution; for inhibition at 10 µM: read-out: Percentage Inhibition of Specific Binding, DAT. As to the method:
as §1
(j) Dopamine Transporter (DAT):
• Reference: Giros et al., Trends Pharmacol. Sci., 14, 43-49 (1993) Gu et al., J. Biol. Chem., 269(10):7124-7130 (1994) • Source: Human recombinant CHO cells • Ligand: 0.15 nM [^125I]

T7 sequence (P35462 whole entry): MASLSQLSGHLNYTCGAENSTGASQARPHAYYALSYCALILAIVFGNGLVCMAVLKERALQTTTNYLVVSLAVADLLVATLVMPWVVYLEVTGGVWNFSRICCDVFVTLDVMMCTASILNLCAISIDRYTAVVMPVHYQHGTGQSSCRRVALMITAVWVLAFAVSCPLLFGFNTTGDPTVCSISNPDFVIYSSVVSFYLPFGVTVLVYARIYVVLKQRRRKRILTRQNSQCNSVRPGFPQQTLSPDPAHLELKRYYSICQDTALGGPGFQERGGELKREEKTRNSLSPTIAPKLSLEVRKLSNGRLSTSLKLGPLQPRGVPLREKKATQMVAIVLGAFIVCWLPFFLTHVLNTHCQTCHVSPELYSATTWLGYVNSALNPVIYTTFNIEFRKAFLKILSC
T9 sequence (Q01959 whole entry): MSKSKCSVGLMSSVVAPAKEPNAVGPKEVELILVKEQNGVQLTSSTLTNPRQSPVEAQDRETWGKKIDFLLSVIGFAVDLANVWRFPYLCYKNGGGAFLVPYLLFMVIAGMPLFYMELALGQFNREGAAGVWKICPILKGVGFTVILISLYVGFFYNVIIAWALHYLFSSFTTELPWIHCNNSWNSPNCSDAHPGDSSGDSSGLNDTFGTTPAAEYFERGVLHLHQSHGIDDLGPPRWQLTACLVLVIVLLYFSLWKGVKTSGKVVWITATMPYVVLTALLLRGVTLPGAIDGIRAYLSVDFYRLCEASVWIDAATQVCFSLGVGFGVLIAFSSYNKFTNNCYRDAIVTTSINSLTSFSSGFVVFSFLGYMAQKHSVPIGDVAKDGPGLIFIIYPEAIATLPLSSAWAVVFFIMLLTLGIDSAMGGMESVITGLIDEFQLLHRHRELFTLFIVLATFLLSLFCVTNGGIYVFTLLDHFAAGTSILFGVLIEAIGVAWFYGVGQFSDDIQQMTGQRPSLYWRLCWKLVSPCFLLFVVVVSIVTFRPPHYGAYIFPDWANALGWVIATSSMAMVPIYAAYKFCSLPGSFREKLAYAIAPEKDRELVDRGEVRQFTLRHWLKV
T2 sequence (P50406 whole entry): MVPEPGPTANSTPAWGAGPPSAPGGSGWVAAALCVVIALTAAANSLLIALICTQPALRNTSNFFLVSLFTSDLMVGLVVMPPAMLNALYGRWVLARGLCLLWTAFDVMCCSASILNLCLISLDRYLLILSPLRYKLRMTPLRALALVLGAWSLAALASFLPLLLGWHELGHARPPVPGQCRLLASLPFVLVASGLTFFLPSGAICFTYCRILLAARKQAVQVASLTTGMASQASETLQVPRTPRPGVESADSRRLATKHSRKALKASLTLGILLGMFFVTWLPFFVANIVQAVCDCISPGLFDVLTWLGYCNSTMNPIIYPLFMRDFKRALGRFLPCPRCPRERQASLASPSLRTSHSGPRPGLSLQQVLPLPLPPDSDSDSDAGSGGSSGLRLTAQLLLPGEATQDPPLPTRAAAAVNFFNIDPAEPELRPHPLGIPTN
T4 sequence (Q99720 whole entry): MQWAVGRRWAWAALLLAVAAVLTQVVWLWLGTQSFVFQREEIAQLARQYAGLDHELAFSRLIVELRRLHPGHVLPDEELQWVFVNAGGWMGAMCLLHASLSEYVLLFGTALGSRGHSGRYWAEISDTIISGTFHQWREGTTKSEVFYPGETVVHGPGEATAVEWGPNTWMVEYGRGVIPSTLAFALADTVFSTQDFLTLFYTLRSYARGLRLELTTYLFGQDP
T5 sequence (P14416 whole entry): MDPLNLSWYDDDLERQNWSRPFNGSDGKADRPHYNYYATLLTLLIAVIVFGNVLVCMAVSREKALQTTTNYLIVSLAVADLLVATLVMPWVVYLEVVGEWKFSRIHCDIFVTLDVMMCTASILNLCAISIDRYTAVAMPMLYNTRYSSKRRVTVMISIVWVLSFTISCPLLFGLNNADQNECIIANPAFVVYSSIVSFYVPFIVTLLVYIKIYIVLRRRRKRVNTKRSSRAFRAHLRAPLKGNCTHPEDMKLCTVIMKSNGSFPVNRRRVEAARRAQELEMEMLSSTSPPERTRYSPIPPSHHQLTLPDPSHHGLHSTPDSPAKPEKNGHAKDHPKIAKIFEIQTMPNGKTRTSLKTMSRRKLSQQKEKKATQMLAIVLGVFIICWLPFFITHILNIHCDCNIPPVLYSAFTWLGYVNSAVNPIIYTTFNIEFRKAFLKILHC
T3 sequence (P21728 whole entry): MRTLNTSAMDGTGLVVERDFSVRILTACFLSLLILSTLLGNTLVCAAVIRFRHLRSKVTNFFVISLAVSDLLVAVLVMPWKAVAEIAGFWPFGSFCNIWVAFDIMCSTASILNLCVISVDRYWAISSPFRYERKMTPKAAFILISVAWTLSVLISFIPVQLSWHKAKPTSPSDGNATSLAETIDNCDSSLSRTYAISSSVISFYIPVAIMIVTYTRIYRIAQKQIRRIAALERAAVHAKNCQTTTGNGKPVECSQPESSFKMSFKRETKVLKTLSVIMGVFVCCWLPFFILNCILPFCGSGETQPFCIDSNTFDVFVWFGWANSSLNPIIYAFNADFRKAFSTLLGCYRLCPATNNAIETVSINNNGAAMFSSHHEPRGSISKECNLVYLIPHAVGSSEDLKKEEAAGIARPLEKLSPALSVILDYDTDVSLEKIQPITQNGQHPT
T8 sequence (P41595 whole entry): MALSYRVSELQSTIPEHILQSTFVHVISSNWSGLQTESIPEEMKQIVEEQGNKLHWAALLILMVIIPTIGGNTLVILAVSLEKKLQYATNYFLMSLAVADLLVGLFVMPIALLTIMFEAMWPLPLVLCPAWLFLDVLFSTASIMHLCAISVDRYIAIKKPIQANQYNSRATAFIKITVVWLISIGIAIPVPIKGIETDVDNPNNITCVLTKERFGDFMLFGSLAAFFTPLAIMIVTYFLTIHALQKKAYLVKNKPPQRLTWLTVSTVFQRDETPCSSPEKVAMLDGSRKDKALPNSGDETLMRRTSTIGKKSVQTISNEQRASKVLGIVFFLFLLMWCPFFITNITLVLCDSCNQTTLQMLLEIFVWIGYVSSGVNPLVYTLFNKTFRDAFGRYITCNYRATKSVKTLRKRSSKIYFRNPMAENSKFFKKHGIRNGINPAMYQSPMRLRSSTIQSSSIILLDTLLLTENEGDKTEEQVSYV

As to `COc1cc2c(cc1OC)[C@H]1C[C@@H](O)[C@H](CC(C)C)CN1CC2` (single isomer, unassigned; isomer d) [Isomer D], at Adrenergic α2B Receptor, the “Percentage Inhibition of Specific Binding, α2B Receptor” value turned out to be 50%. Also, the “Percentage Inhibition of Specific Binding, 5-HT6 receptor” value in test [1] was found to be 41%. Besides, the “Percentage Inhibition of Specific Binding, D1 Receptor” value on Dopamine D1 Receptor came to 38%. Further, the “Percentage Inhibition of Specific Binding, σ1 Receptor” value on Sigma σ1 Receptor was 82%. Moreover, the “Percentage Inhibition of Specific Binding, D2L Receptor” value at Dopamine D2L Receptor is 58%. Moreover, the “Percentage Inhibition of Specific Binding, α2A Receptor” value at Adrenergic α2A Receptor worked out at 87%. At Dopamine D3 Receptor, the “Percentage Inhibition of Specific Binding, D3 Receptor” value stood at 63%. The “Percentage Inhibition of Specific Binding, 5-HT2b receptor” value in test [2] was determined as 43%. Moreover, the “Percentage Inhibition of Specific Binding, I2 Receptor” value (from here on “Percentage Inhibition … I2 Receptor”) in [3] is 55%. In addition, in test [4], the “Percentage Inhibition of Specific Binding, DAT” value worked out at 2%.

Take `COc1cc2c(cc1OC)C1CC(O)C(CC(C)C)CN1CC2` (single isomer, unassigned) [Isomer C]: the inhibition at 10 µM was -7% at Adrenergic α2B Receptor; 10% in test [1]; 6% at Dopamine D1 Receptor; 59% at Sigma σ1 Receptor; -14% on Dopamine D2L Receptor; 13% at Adrenergic α2A Receptor. The values for the inhibition at 10 µM (at Dopamine D3 Receptor; in [2]; in [4]) were 9%, 14% and -2%, respectively. In test [3], the “Percentage Inhibition … I2 Receptor” value is on record as 0%.

As to `COc1cc2c(cc1OC)[C@@H]1C[C@@H](O)[C@H](CC(C)C)CN1CC2` (single isomer, unassigned) [Isomer A], the inhibition at 10 µM on Adrenergic α2B Receptor was 44%; in test [1], 51%; on Dopamine D1 Receptor it was 78%; on Sigma σ1 Receptor it was 48%; on Dopamine D2L Receptor it was 87%; on Adrenergic α2A Receptor it was 86%. Further, the inhibition at 10 µM at Dopamine D3 Receptor is 69%; in test [2] it was 74%; in test [4] it was 3%. Also, the “Percentage Inhibition … I2 Receptor” value in [3] is 74%.

For the molecule `COc1cc2c(cc1OC)[C@H]1C[C@H](O)[C@@H](CC(C)C)CN1CC2` (single isomer, unassigned) [Isomer B], the inhibition at 10 µM amounted to 14% at Adrenergic α2B Receptor; 10% in test [1]; 1% at Dopamine D1 Receptor; 82% at Sigma σ1 Receptor; 16% on Dopamine D2L Receptor; 12% on Adrenergic α2A Receptor. In addition, the inhibition at 10 µM came to 7% on Dopamine D3 Receptor, 10% in test [2] and 4% in [4]. Further, in [3], the “Percentage Inhibition … I2 Receptor” value was found to be 8%.
